Experimental findings from patent publication US20210401931A1, “METHODS AND MATERIALS FOR TREATING CANCER” (Mayo Foundation for Medical Education and Research, priority 2018, published 2021) are described below.

“Also recorded” adds a separate entry of the source.

The subject of test [1] is MAP3K7- and CHD1-KD PC-3 cells. As to the kind of experiment: MTS viability / IC50 analysis in MAP3K7- and CHD1-KD PC-3 cells. Type of test: cell-based, human. The following applies: MTS assay, log 2(IC50ratio). As to the method: FIGS. 14A-G. RB functions as a negative regulator of NFκB signaling. (A) PC-3 infected with lentivirus for indicated shRNAs were treated with different chemicals and cells viability was measured by MTS assay. Heat map showing the normalized IC50 ratio (log 2(IC50ratio)). (B-D) PC-3 cells infected with lentivirus expressing indicated shRNAs were harvested for western blots (B), FACS (C), and RT-qPCR (D). All data were shown as mean values±SD (n=3). ns, not significant, * P<0.05, ** P<0.01, *** P<0.001. (E, F) PC-3 cells infected with indicated lentivirus were injected s.c. into NSG mice, and tumors were harvested and photographed at day 21 (E). Data in (F) were shown as means±SD (n=5). ns, not significant, * P<0.05. (G) A model depicting RB functions as a negative regulator of NFκB (p65/p50), providing an explanation of the finding that depletion of RB offsets the death of PTEN-null cells induced by either MAP3K7 or CHD1 deletion.
MAP3K7 or CHD1 was knocked down (KD) in PTEN-null PC-3 cells followed by treatment with an array of small molecule inhibitors for a number of cancer relevant pathways.
Background: Tetrazolium dyes change colour on reduction, which living cells bring about.

The subject of another test is p65-IκBα interaction. As to the kind of experiment: Co-immunoprecipitation of p65 and IκBα in PC-3 cells. Type of test: cell-based, human. The following applies: TNFα 20 ng/mL, 24 hours.
The next test has as its system RB-p65 interaction. As to the kind of experiment: Co-immunoprecipitation of RB and p65 in PC-3 cells. Format: cell-based, human. Conditions: TNFα 20 ng/mL, 24 hours. From the text: FIGS. 2A-H. RB phosphorylation by CDK4 enhances RB interaction with NFκB protein p65. (A) Western blot analysis of reciprocal co-immunoprecipitation of endogenous RB1 and p65 proteins in PC-3 cells. (B) Schematic diagram depicting a set of p65 recombinant protein constructs. Western blot analysis of RB proteins in PC-3 cells whole cell lysate pulled down by GST or GST-p65 recombinant proteins. Stars indicated expected molecular weight. (C) Western blot analysis of RB proteins in PC-3 whole cell lysate pulled down by GST or GST-p65 recombinant proteins. Cell lysates were treated with or without λ, phosphatase before GST-pull down. (D) Western blot analysis of PC-3 whole cell lysates (WCL) and co-IP samples. Cell lysates were treated with or without λ, phosphatase before IP. (E) Western blot analysis of WCL and co-IP samples in DU145 cells 24 hours after transfected with indicated plasmids. (F) Western blot analysis of WCL and co-IP samples in PC-3 cells. Cells were treated with or without palbociclib (5 μM) for 24 hours before IP. […] Western blot bands of co-IPed RB protein were quantified by ImageJ software and normalized to the quantified value of IP-ed RB in cells without TNFα treatment. […] Western blot bands of p65 protein were quantified by ImageJ software and normalized to the quantified value of p65 protein in cell lysate without immuno-depletion (preimmune sample). […]

Test [2] has as its system NF-κB site of the PD-L1 promoter. The test is described as follows: EMSA with biotin-labeled PD-L1-prom oligonucleotide and PC-3 nuclear extracts. Type of test: cell-based, human. Conditions: PC-3 nuclear extract. An excerpt: FIGS. 11A-H. (A) Heatmap showing differentially expressed genes (FDR<0.01) between palbociclib treatment versus DMSO and knockdown RB1 versus control. Gene expression values (FPKM) were Z-score normalized. FPKM, Fragments Per Kilobase of transcript per Million mapped reads. (B) UCSC Genome Browser screenshots of meta-analysis of published RB ChIP high throughput sequencing (ChIP-seq) data showing RB binding to CD274 (PD-L1) gene locus in K562 cells. PD-L1-prom oligonucleotide DNA containing NF-κB binding sequence was shown in the RB binding peak in the PD-L1 gene, the corresponding mutant PD-L1-prom oligonucleotide DNA was shown below. FIG. 11B discloses SEQ ID NOS 279-280, respectively, in order of appearance. (C) ChIP-qPCR analysis of RB binds at the PD-L1 promotor in PC-3 cells. All data were shown as mean values±SD (n=3). *** P<0.001. (D) ChIP-reChIP analysis examining the co-localization of p65 and RB in the PD-L1 promoters. All data were shown as mean values±SD (n=3). ** P<0.01. […]
FIGS. 21A-N. Effect of RB depletion, cell cycle, and RB-N S249/T252 phospho-mimicking peptide on PD-L1 expression in cell lines of various cancer types. […] 48 hours after infection, PD-L1 expression was determined by western blotting (A), RT-qPCR (B), and FACS (C). […] (D) Pd-l1 protein and mRNA levels were determined by western blotting in primary SKO and DKO mouse prostate tumor cell lines. […]

The target of test [3] is T1, p65 NFκB protein (human, UniProt Q04206 1-551).
T1 construct: which one stood in the assay is told under assay; also called endogenous p65; in vitro transcribed and translated p65 (pCMV4 p65)
The test is described as follows: GST pull down from PC-3 whole cell lysate, western blot (FIG. 2H). On the procedure:
(§1) Cells were lysed with IP buffer (50 mM Tris-HCl, pH 7.4, 150 mM NaCl, 1% Triton X-100, 1% sodium deoxycholate, and 1% protease inhibitor cocktails) on ice for more than 30 minutes. GST fusion proteins were immobilized on glutathione-Sepharose beads (GE Healthcare Lifesciences). After washing with lysis buffer, the beads were incubated with cell lysates overnight at 4° C. overnight. The beads were then washed six times with binding buffer and re-suspended in sample buffer. The bound proteins were subjected to western blotting analysis.
On the technique in general: A western blot detects proteins with antibodies after separation by electrophoresis.

The target of test [4] is T1, p65 NFκB protein. The test is described as follows: GST pull down from PC-3 whole cell lysate, western blot. As to the method: as §1

T1 sequence (Q04206 whole entry): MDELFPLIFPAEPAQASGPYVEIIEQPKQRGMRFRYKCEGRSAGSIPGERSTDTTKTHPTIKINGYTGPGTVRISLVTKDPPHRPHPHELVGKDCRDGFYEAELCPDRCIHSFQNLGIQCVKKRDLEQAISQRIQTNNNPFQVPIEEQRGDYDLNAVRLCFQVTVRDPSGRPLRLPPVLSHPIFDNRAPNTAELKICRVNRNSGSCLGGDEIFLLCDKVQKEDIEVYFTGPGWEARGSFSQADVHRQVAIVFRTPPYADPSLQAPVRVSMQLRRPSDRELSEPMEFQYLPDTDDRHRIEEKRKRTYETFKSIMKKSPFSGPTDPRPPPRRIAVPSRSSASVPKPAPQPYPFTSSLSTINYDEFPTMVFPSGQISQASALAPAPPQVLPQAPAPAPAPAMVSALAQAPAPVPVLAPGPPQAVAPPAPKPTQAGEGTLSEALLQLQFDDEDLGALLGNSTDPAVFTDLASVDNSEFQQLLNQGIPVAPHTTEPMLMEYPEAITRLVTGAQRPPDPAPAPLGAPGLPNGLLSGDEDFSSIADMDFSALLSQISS

Regarding `Cc1ccc(NCCCc2ccccc2)c(N)c1` [JSH-23], the “viability of MAP3K7- and CHD1-KD PC-3 cells (normalized IC50 ratio)” value in test [1] is “further increased viability loss”.
Regarding TNFα, the p65-IκBα interaction entry with p65-IκBα interaction was “decreased”. Besides, the “p65-RB interaction in the nucleus” value in the test on RB-p65 interaction is given as “increased”. Besides, in test [2], the “DNA-protein complex (DPC) level at PD-L1-Prom probe” value is “largely enhanced; also recorded: further enhanced”.

B1: GST-RB-C (other, human, UniProt P06400 793-928, looked up)
chain: PSSPLRIPGGNIYISPLKSPYKISEGLPTPTKMTPRSRILVSIGESFGTSEKFQKINQMVCNSDRVLKRSAEGSNPPKPLKKLRFDIEGSDEADGSKHLPGESKFQQKLAEMTSTRTRMQKQKMNDSMDTSNKEEK
notes: domain: RB-C; not shown: glutathione S-transferase (GST) tag of the fusion
B1: the binding result in the test with p65 NFκB protein [3] is reported as “no binding”.

B2: GST-RB-M (other, human, UniProt P06400 380-792, looked up)
chain: NTIQQLMMILNSASDQPSENLISYFNNCTVNPKESILKRVKDIGYIFKEKFAKAVGQGCVEIGSQRYKLGVRLYYRVMESMLKSEEERLSIQNFSKLLNDNIFHMSLLACALEVVMATYSRSTSQNLDSGTDLSFPWILNVLNLKAFDFYKVIESFIKAEGNLTREMIKHLERCEHRIMESLAWLSDSPLFDLIKQSKDREGPTDHLESACPLNLPLQNNHTAADMYLSPVRSPKKKGSTTRVNSTANAETQATSAFQTQKPLKSTSLSLFYKKVYRLAYLRLNTLCERLLSEHPELEHIIWTLFQHTLQNEYELMRDRHLDQIMMCSMYGICKVKNIDLKFKIIVTAYKDLPHAVQETFKRVLIKEEEYDSIIVFYNSVFMQRLKTNILQYASTRPPTLSPIPHIPRSPYKF
notes: domain: RB-M; not shown: glutathione S-transferase (GST) tag of the fusion
As to B2, in the test with p65 NFκB protein [4], the binding result was “no binding”.
